Data reported in patent US20240376097A1, “BCL-2 Inhibitor” (BeiGene Ltd., priority 2020, published 2024).
Values belong to the compound of their own block, whether it stands above or below them.

Legend:
[1] = system: BCL-2 G101V knock-in cell line H96 (derive from RS4;11); test: Bcl 2-G101V Knock-In RS4;11 Cell Proliferation Assay; type: cell-based; settings: Homo sapiens, RS4;11 Bcl-2 G101V knock-in clone H96, 48 hrs, CellTiter-GLO, read-out: Cellular proliferation assay (IC50, nM) RS4
Method: Biological Example: Bcl 2-G101V Knock-In RS4;11 Cell Proliferation Assay
(1) RS4;11 H96 Bcl 2-G101V Knock-In Cell Line Generation
Briefly, RS4;11 BCL2-G101V knock-in cell pool was generated using Crisper/Cas9 gene editing system and the BCL2-G101V knock-in single clone H96 was picked from the knock-in cell pool and validated by WES (whole exome-sequencing) and RNA-seq.
The BCL-2 dependent acute lymphoblastic leukemia (ALL) cell line, RS4;11(ATCC, CRL-1873), was cultured in RPMI-1640 complete medium (RPMI-1640 medium, HEPES (Gibco, 22400-105) supplemented with 10% fetal bovine serum (FBS) (Gibco, 10099-1441), 100 unit/ml penicillin and 100 μg/ml streptomycin (Gibco, 15140122)) and maintained in a humidified chamber at 37° C. containing 5% CO2.
To obtain BCL2-G101V knock-in cell pool, RS4;11 was co-transfected with the Cas9-gRNA which also expressed GFP label, and the Donor gene which contained the BCL2-G101V mutant sequence. After 48 hrs of electroporation, the GFP positive cells were collected through FACSAriaIII cell sorting system. Cell pool was recovered for 3 days and then cultured under 2 nM ABT-199 stress for 4 weeks. […] Then cells were plated in 96 well U-plate with 1 cell/well for 10000 wells for single clone selection. After 3-5 weeks growing, clones were successively screened by PCR sequencing. And three BCL2-G101V knock-in clones: H96, H142 and H233, have been picked out.
Three clones were validated by genome DNA and cDNA(mRNA) PCR sequencing, and BCL-2, BCL-xL and MCL-1 expression using Western Blot. The H96 clone was also validated by WES (whole exome-sequencing) and RNA-seq.
(2) Bcl 2-G101V Knock-In RS4;11 Cell Proliferation Assay
The BCL-2 G101V knock-in cell line H96 (derive from RS4;11) were used to study the cellular potency of BCL-2 inhibitors. The cells were cultured in RPMI-1640 complete medium (RPMI-1640 medium, HEPES (Gibco, 22400-105) supplemented with 10% fetal bovine serum (FBS) (Gibco, 10099-1441), 100 unit/ml penicillin and 100 μg/ml streptomycin (Gibco, 15140122)) and maintained in a humidified chamber at 37° C. containing 5% CO2. Each compound was serially diluted with 1 μM or 10 μM as the maximum concentration. To test the apoptotic effect of the compounds, the cells were seeded at 50,000 in 90 μl per well in 96-well plates and treated with 10-point dilution series of each compound for 48 hrs at 37° C. Cell viability was assessed after the treatment using CellTiter-GLO luminescent assay (Promega) according to the manufacturer's recommendations. Briefly, 30 μl of CellTiter-GLO reagent was added into 100 μl of cell culture. Mixture was agitated on an orbital shaker for 5 min to ensure cell lysis followed by 7 min incubation at room temperature to allow development and stabilization of luminescent signals, which corresponded to the quantity of ATP and thus the quantity of metabolically active cells. Luminescent signals were measured using PHERAstar FS reader (BMG). Mean IC50 values were determined with GraphPad Prism software.

[2] = target: Recombinant human Bcl-2 protein (Homo sapiens (Human), UniProt P10415); test: Bcl-2 TR-FRET Assay; type: binding; settings: Bcl-2 wild type, TR-FRET; read-out: Biochemical assay (IC50, nM) Bcl-2 WT
Summary of the method: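 Displacement of FITC-labelled Bak peptide (0.5 nM) from 0.05 nM human Bcl-2, detected by TR-FRET with Tb-cryptate anti-6His antibody after 1 h at room temperature. Compounds, 10-point series, preincubated 0.5 h with protein in 20 mM potassium phosphate pH 7.5, 50 mM NaCl. IC50s fitted by four-parameter logistic.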

[3] = target: recombinant human Bcl-2-G101V protein (Homo sapiens (Human), UniProt P10415, G101V); test: Bcl-2-G101V TR-FRET Assay; type: binding; settings: Bcl-2 G101V mutant, TR-FRET; read-out: Biochemical assay (IC50, nM) Bcl-2 G101V
Summary of the method: (§1)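 IC50 values derive from four-parameter logistic fitting of percent inhibition data. That inhibition of ligand binding to Bcl-2-G101V is computed from the 490 nm/520 nm TR-FRET ratio under 337 nm excitation, over a rising compound concentration series.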

[4] = system: recombinant human Bcl-2-G101V protein; test: Bcl-2-G101V TR-FRET Assay; type: binding; settings: ratio of biochemical IC50 Bcl-2 G101V / Bcl-2 WT
Summary of the method: as §1

[5] = system: RS4;11 (BCL-2 dependent acute lymphoblastic leukemia cell line); test: RS4;11 Cell Proliferation Assay; type: cell-based; settings: Homo sapiens, RS4-11, RS4;11 cells, read-out: Cellular proliferation assay (IC50, nM) RS4
Summary of the method: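 Viability measured via CellTiter-Glo luminescence after a 48 h, 37 °C exposure to compounds (10 points, highest 1 μM). Seeding was 50,000 RS4;11 cells per well in 10% FBS RPMI-1640; IC50 given as mean.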

SMILES: COc1ccc(CN2CCN(C3CC4(CCN(c5ccc(C(=O)NS(=O)(=O)c6ccc(NCC7CCOCC7)c([N+](=O)[O-])c6)c(Oc6cnc7[nH]ccc7c6)c5)CC4)C3)C(c3ccccc3C)C2)cc1 (centres unmarked) [Example 38]
IC50 [1]: 37.5 nM
IC50 [2]: 0.053 nM
IC50 [3]: 4.1 nM
Ratio of Bcl-2 G101V/WT [4]: 77.4
IC50 [5]: 2.5 nM

SMILES: COc1cccc(CN2CCN(C3CC4(CCN(c5ccc(C(=O)NS(=O)(=O)c6ccc(NC[C@H]7CC[C@](C)(O)CC7)c([N+](=O)[O-])c6)c(Oc6cnc7[nH]ccc7c6)c5)CC4)C3)C(c3ccccc3C(C)C)C2)c1 (some centres unmarked) [Example 44, 2-((1H-pyrrolo[2,3-b]pyridin-5-yl)oxy)-N-((4-((((1r,4r)-4-hydroxy-4-methylcyclohexyl)methyl)amino)-3-nitrophenyl)sulfonyl)-4-(2-(2-(2-isopropylphenyl)-4-(3-methoxybenzyl)piperazin-1-yl)-7-azaspiro[3.5]nonan-7-yl) benzamide]
IC50 [1]: 3.31 nM
IC50 [2]: 0.3 nM
IC50 [3]: 0.84 nM
Ratio of Bcl-2 G101V/WT [4]: 2.8
IC50 [5]: 0.5 nM

SMILES: CC(C)c1ccccc1C1CN(Cc2ccc3c(c2)CCCC3)CCN1C1CC2(CCN(c3ccc(C(=O)NS(=O)(=O)c4ccc(NC[C@H]5CC[C@](C)(O)CC5)c([N+](=O)[O-])c4)c(Oc4cnc5[nH]ccc5c4)c3)CC2)C1 (some centres unmarked) [Example 54, 2-((1H-pyrrolo[2,3-b]pyridin-5-yl)oxy)-N-((4-((((1r,4r)-4-hydroxy-4-methylcyclohexyl)methyl)amino)-3-nitrophenyl)sulfonyl)-4-(2-(2-(2-isopropylphenyl)-4-((5,6,7,8-tetrahydronaphthalen-2-yl)methyl)piperazin-1-yl)-7-azaspiro[3.5]nonan-7-yl)benzamide]
IC50 [1]: 11.7 nM
IC50 [2]: 0.76 nM
IC50 [3]: 4.7 nM
Ratio of Bcl-2 G101V/WT [4]: 6.2
IC50 [5]: 0.79 nM

SMILES: CC(C)c1ccccc1C1CN(CC2CCOc3ccccc32)CCN1C1CC2(CCN(c3ccc(C(=O)NS(=O)(=O)c4ccc(NC[C@H]5CC[C@](C)(O)CC5)c([N+](=O)[O-])c4)c(Oc4cnc5[nH]ccc5c4)c3)CC2)C1 (some centres unmarked) [Example 57, 2-((1H-pyrrolo[2,3-b]pyridin-5-yl)oxy)-4-(2-(4-(chroman-4-ylmethyl)-2-(2-isopropylphenyl)piperazin-1-yl)-7-azaspiro[3.5]nonan-7-yl)-N-((4-((((1r,4r)-4-hydroxy-4-methylcyclohexyl)methyl)amino)-3-nitrophenyl)sulfonyl)benzamide]
IC50 [1]: 8.9 nM
IC50 [2]: 0.44 nM
IC50 [3]: 2.2 nM
Ratio of Bcl-2 G101V/WT [4]: 5.0
IC50 [5]: 0.8 nM

SMILES: CC(C)c1ccccc1C1CN(C(=O)c2ccccc2)CCN1C1CC2(CCN(c3ccc(C(=O)NS(=O)(=O)c4ccc(NC[C@H]5CC[C@](C)(O)CC5)c([N+](=O)[O-])c4)c(Oc4cnc5[nH]ccc5c4)c3)CC2)C1 (some centres unmarked) [Example 60]
IC50 [1]: 2.52 nM
IC50 [2]: 0.057 nM
IC50 [3]: 1.6 nM
Ratio of Bcl-2 G101V/WT [4]: 28.1
IC50 [5]: 0.35 nM

SMILES: CC(C)c1ccccc1C1CN(S(=O)(=O)c2ccccc2)CCN1C1CC2(CCN(c3ccc(C(=O)NS(=O)(=O)c4ccc(NC[C@H]5CC[C@](C)(O)CC5)c([N+](=O)[O-])c4)c(Oc4cnc5[nH]ccc5c4)c3)CC2)C1 (some centres unmarked) [Example 62, 2-((1H-pyrrolo[2,3-b]pyridin-5-yl)oxy)-N-((4-((((1r,4r)-4-hydroxy-4-methylcyclohexyl)methyl)amino)-3-nitrophenyl)sulfonyl)-4-(2-(2-(2-isopropylphenyl)-1-(phenylsulfonyl)piperazin-1-yl)-7-azaspiro[3.5]nonan-7-yl) benzamide]
IC50 [1]: 28.4 nM
IC50 [2]: 0.33 nM
IC50 [3]: 13 nM
Ratio of Bcl-2 G101V/WT [4]: 39.4
IC50 [5]: 2.4 nM

SMILES: CC(C)c1ccccc1C1CN(S(C)(=O)=O)CCN1C1CC2(CCN(c3ccc(C(=O)NS(=O)(=O)c4ccc(NC[C@H]5CC[C@](C)(O)CC5)c([N+](=O)[O-])c4)c(Oc4cnc5[nH]ccc5c4)c3)CC2)C1 (some centres unmarked) [Example 66, 2-((1H-pyrrolo[2,3-b]pyridin-5-yl)oxy)-N-((4-((((1r,4r)-4-hydroxy-4-methylcyclohexyl)methyl)amino)-3-nitrophenyl)sulfonyl)-4-(2-(2-(2-isopropylphenyl)-4-(methylsulfonyl)piperazin-1-yl)-7-azaspiro[3.5]nonan-7-yl) benzamide]
IC50 [1]: 6.61 nM
IC50 [2]: 0.034 nM
IC50 [3]: 1.6 nM
Ratio of Bcl-2 G101V/WT [4]: 47.1
IC50 [5]: 0.6 nM

SMILES: CCc1ccccc1C1CN(Cc2ccc(OC)cc2)CCN1C1CC2(CCN(c3ccc(C(=O)NS(=O)(=O)c4ccc(NC[C@H]5CC[C@](C)(O)CC5)c([N+](=O)[O-])c4)c(Oc4cnc5[nH]ccc5c4)c3)CC2)C1 (some centres unmarked) [Example 76, 2-((1H-pyrrolo[2,3-b]pyridin-5-yl)oxy)-4-(2-(2-(2-ethylphenyl)-4-(4-methoxybenzyl)piperazin-1-yl)-7-azaspiro[3.5]nonan-7-yl)-N-((4-((((1r,4r)-4-hydroxy-4-methylcyclohexyl)methyl)amino)-3-nitrophenyl)sulfonyl)benzamide]
IC50 [1]: 6.5 nM
IC50 [2]: 0.074 nM
IC50 [3]: 1.3 nM
Ratio of Bcl-2 G101V/WT [4]: 17
IC50 [5]: 0.69 nM

IC50 [1]: 11.6 nM
IC50 [2]: 0.074 nM
IC50 [3]: 2 nM
IC50 [5]: 2.85 nM
SMILES: COc1ccc(CN2CCN(C3CC4(CCN(c5ccc(C(=O)NS(=O)(=O)c6ccc(NC[C@H]7CC[C@](C)(O)CC7)c([N+](=O)[O-])c6)c(Oc6cnc7[nH]ccc7c6)c5)CC4)C3)[C@@H](c3ccccc3C(C)C)C2)cc1OC [Example 81b]
Ratio of Bcl-2 G101V/WT [4]: 27

SMILES: COc1ccc(CN(C)C2CCN(C3CC4(CCN(c5ccc(C(=O)NS(=O)(=O)c6ccc(NC[C@H]7CC[C@](C)(O)CC7)c([N+](=O)[O-])c6)c(Oc6cnc7[nH]ccc7c6)c5)CC4)C3)C(c3ccccc3C3CC3)C2)cc1 (some centres unmarked) [Example 105, 2-((1H-pyrrolo[2,3-b]pyridin-5-yl)oxy)-4-(2-(2-(2-cyclopropylphenyl)-4-((4-methoxybenzyl)(methyl)amino)piperidin-1-yl)-7-azaspiro[3.5]nonan-7-yl)-N-((4-((((1r,4r)-4-hydroxy-4-methylcyclohexyl)methyl)amino)-3-nitrophenyl)sulfonyl)benzamide]
IC50 [1]: 16.6 nM
IC50 [2]: 0.1 nM
IC50 [3]: 0.25 nM
Ratio of Bcl-2 G101V/WT [4]: 2.5
IC50 [5]: 2.12 nM
